Entries after “also recorded” stand apart in the source; their conditions may differ.
Experiments:
[1] = Mean arterial blood pressure in 3×TG AD mice; assay type: in vivo; conditions: 3×TG mice
Protocol: A 10 month continuous dose study was performed in the 3×TG Alzheimer's Disease (AD) mouse model containing the triple mutations (APP(swe), PS1(M146V), tau(P301L)) from Jackson labs. Synaptic dysfunction and LTP deficits manifests in an age-related manner beginning from 2-6 months that occurs prior to Aβ pathology (87, herein incorporated by reference). Hippocampal-dependent cognitive impairments begin at 4-6 months depending upon the strain (88-89, herein incorporated by reference). 3×Tg mice have documented cognitive deficits in the Morris water maze (88) and Barnes maze (9, 90). Deficits in long-term synaptic plasticity correlate with the accumulation of intraneuronal Aβ (88). 3×Tg have decreased neurogenesis in both SGZ and SVZ before Aβ pathology and treatments that increased neurogenesis improved memory in 3×TG mice (18-19, herein incorporated by reference).
(§1) AD mice were first randomized and sorted into control or treatment groups. […] 14 AD mice from each treatment group received Compound 3 in the drinking water (2.611 mg/kg/bw) to deliver a daily dose near the peak potentiation of the cAMP response in the brain at 10^−8M based upon the PAM assay and pharmacokinetics. This was achieved by adding Compound 3 to the drinking water at 32 uM, assuming the mice drink 6 ml/day, with only 10% of bioavailable drug reaching the brain. The drug was administered in the drinking water for 10 months, starting at age 2 months, then subjected to either different cognitive behavioral tests or electrophysiology at age 12 months to maximize the manifestations of AD symptoms in these mice. Mice are maintained on the drug for the duration of the studies and blinded to the operator.
(§2) At 12 months of age mice were subjected to long term potentiation (LTP) (FIG. 25).
Assessment: Blood pressure. […]

[2] = tested on: 3×TG Alzheimer's Disease (AD) mouse model; test: Hippocampal CA1 electrophysiology (LTP, input-output, paired-pulse ratio) in 3×TG mice; assay type: in vivo
Protocol: as §1, §2
Electrophysiology. Hippocampi are removed and slices cut 400 μm thick and immediately transferred to an oxygenated holding chamber filled with artificial cerebrospinal fluid, acclimated and transferred to recording chambers. Micropipettes are backfilled with NaCl solution and placed in the stratum radiatum. Evoked field excitatory postsynaptic potentials (fEPSPs) are measured in current clamp mode. An ISO-flex stimulator paired with a 7.5-cm bipolar tungsten-stimulating electrode is used for presynaptic stimulation of the Schaffer collateral-commissural fibers. Signals are converted from analog to digital and electronic cycling and noise filtered. Basal synaptic transmission is assessed by determining input-output curves, generated by applying a stepwise 5 μA increase in stimulation intensity. Responses are elicited every 20 seconds with duration of 100 μs per pulse. Short-term plasticity is investigated by assessing paired-pulse facilitation (PPF) by applying two pulses with interpulse intervals of 35-300 ms. A baseline response of 30 min is recorded immediately after PPF, which is followed by θ-burst stimulation (TBS) given at 80% maximal response to induce LTP. fEPSPs are recorded at 50% maximal response every 20 seconds for 90 minutes.

α1A-AR = target: T1, α1A-AR (Homo sapiens, UniProt P35348); test: cAMP assay at α1A-AR; assay type: cell-based; design: expressed in transfected cells; host or cells: Rat-1 fibroblast cells
T1 sequence (P35348 1-466): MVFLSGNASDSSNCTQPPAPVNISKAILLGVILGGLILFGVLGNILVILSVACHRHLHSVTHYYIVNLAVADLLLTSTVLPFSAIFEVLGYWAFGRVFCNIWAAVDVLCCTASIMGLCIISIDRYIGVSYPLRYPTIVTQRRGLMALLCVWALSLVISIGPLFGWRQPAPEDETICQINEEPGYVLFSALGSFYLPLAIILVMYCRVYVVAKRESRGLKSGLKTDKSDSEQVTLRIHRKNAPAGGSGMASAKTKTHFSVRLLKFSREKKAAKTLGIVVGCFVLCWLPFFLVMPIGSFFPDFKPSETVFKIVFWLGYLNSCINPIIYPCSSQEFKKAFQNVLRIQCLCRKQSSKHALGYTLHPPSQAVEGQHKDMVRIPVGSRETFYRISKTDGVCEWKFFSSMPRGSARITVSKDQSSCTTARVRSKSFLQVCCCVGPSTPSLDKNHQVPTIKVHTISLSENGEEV
Protocol: cAMP assay: Cells expressing a single α1-adrenergic receptor subtype are washed and re-plated into 24-well plates in DMEM media without serum at approximately 2.4×10^4 cells/well. Cells are allowed to rest till the next day in a CO2 incubator at 37° C. The cells are washed twice with DMEM (no serum), then 1 ml of DMEM is added to each well. Cells are pre-incubated for 45 mins-1 hour at 37° C. in a CO2 incubator with 10 uM propranolol, followed by 100 uM IBMX for 30 minutes. Final DMSO concentration is at 0.05%. Norepinephrine or epinephrine is added in a dose response (1 dose per well) in addition to one of the Compounds 1-10 at one concentration (i.e. 10^−5M). Cells are incubated for another 30 mins at 37° C. in a CO2 incubator. The reaction is concluded by aspirating the media and adding 0.1M HCL. The mixture is incubated for 20 mins at room temperature. The cells are scraped and suspended until homogenous. The mixture is centrifuged at 1000 g for 10 mins and the supernatant assayed the same day according to a manufacturer's cAMP kit (Cayman Select Cyclic AMP EIA kit #501040).

[3] = drinking water 2.611 mg/kg/bw, N=13-16

CC(C)Cc1c(OCC2=NCCN2)cccc1N(C)S(C)(=O)=O [Compound 3, N-[3-(4,5-Dihydro-1H-imidazol-2-ylmethoxy)-2-isobutyl-phenyl]-N-methyl-methanesulfonamide]
blood pressure, treated vs untreated [1]: no significant differences; also recorded: does not affect blood pressure
mean arterial blood pressure, treated females (F) [1, 3]: 85±2.4
mean arterial blood pressure, treated males (M) [1, 3]: 97±3
paired pulse ratio (PPR) vs untreated, female ([2]; female 3×TG mice): higher
basal synaptic transmission / synaptic strength (input-output) ([2]; female 3×TG mice, CA1, approaching significance): increase synaptic strength; also recorded: increased
long term potentiation (LTP) vs untreated ([2]; female AD mice, 12 months of age, CA1): statistically significant (p<0.01)
paired pulse ratio (PPR) vs untreated, male ([2]; male 3×TG mice): increased PPR
PAM activity / PAM type (α1A-AR): Type I PAM
dose at which potentiation of norepinephrine cAMP response is maximal (α1A-AR): 10^−8 M
effect on epinephrine-mediated cAMP response at the α1A-AR (α1A-AR; 10^−5M to 10^−7M of compound): no effect
effect on norepinephrine-mediated cAMP response at the α1A-AR (α1A-AR; 10^−5M to 10^−9M of compound): potentiates
stimulation of cAMP by the compound by itself (α1A-AR; compound alone): cannot stimulate
potentiation of the cAMP response of norepinephrine (α1A-AR; dose-response of compound): 50%

Source: patent US12384751B2, “Allosteric activators of the ALPHA1A-adrenergic receptor” (The Cleveland Clinic Foundation, priority 2019, dated 2025)
